Laboratory results published in patent US8822451B2, “Modulators of ATP-binding cassette transporters” (Vertex Pharmaceuticals Incorporated, priority 2005, dated 2014).

Target: T1, […]F508-CFTR (Homo sapiens, UniProt P13569, DEL508-508)
T1 construct: expressed in transfected cells
Assay: Assay results of Table 3: ΔF508-CFTR modulation, membrane potential optical assay (assay format not stated)
Format: cell-based
Conditions: NIH3T3 mouse fibroblasts stably expressing […]F508-CFTR (optical assays); for Efficacy: efficacy range; for EC50: potency range
Text: A. Membrane Potential Optical Methods for Assaying […]F508-CFTR Modulation Properties of Compounds
The optical membrane potential assay utilized voltage-sensitive FRET sensors described by Gonzalez and Tsien (See, Gonzalez, J. E. and R. Y. Tsien (1995) “Voltage sensing by fluorescence resonance energy transfer in single cells” Biophys J 69(4): 1272-80, and Gonzalez, J. E. and R. Y. Tsien (1997) “Improved indicators of cell membrane potential that use fluorescence resonance energy transfer” Chem Biol 4(4): 269-77) in combination with instrumentation for measuring fluorescence changes such as the Voltage/Ion Probe Reader (VIPR) (See, Gonzalez, J. E., K. Oades, et al. (1999) “Cell-based assays and instrumentation for screening ion-channel targets” Drug Discov Today 4(9): 431-439).
These voltage sensitive assays are based on the change in fluorescence resonant energy transfer (FRET) between the membrane-soluble, voltage-sensitive dye, DiSBAC2(3), and a fluorescent phospholipid, CC2-DMPE, which is attached to the outer leaflet of the plasma membrane and acts as a FRET donor. Changes in membrane potential (Vm) cause the negatively charged DiSBAC2(3) to redistribute across the plasma membrane and the amount of energy transfer from CC2-DMPE changes accordingly. The changes in fluorescence emission were monitored using VIPR™ II, which is an integrated liquid handler and fluorescent detector designed to conduct cell-based screens in 96- or 384-well microtiter plates.
To identify small molecules that correct the trafficking defect associated with ΔF508-CFTR; a single-addition HTS assay format was developed. The cells were incubated in serum-free medium for 16 hrs at 37° C. in the presence or absence (negative control) of test compound. As a positive control, cells plated in 384-well plates were incubated for 16 hrs at 27° C. to “temperature-correct” […]F508-CFTR. The cells were subsequently rinsed 3× with Krebs Ringers solution and loaded with the voltage-sensitive dyes. To activate […]F508-CFTR, 10 µM forskolin and the CFTR potentiator, genistein (20 µM), were added along with Cl^−-free medium to each well. The addition of Cl^−-free medium promoted Cl^− efflux in response to […]F508-CFTR activation and the resulting membrane depolarization was optically monitored using the FRET-based voltage-sensor dyes.
To identify potentiators of […]F508-CFTR, a double-addition HTS assay format was developed. During the first addition, a Cl^−-free medium with or without test compound was added to each well. After 22 sec, a second addition of Cl^−-free medium containing 2-10 µM forskolin was added to activate […]F508-CFTR. The extracellular Cl^− concentration following both additions was 28 mM, which promoted Cl^− efflux in response to […]F508-CFTR activation and the resulting membrane depolarization was optically monitored using the FRET-based voltage-sensor dyes.
Bath Solution #1: (in mM) NaCl 160, KCl 4.5, CaCl2 2, MgCl2 1, HEPES 10, pH 7.4 with NaOH.
Chloride-free bath solution: Chloride salts in Bath Solution #1 are substituted with gluconate salts.
CC2-DMPE: Prepared as a 10 mM stock solution in DMSO and stored at −20° C.
DiSBAC2(3): Prepared as a 10 mM stock in DMSO and stored at −20° C.
NIH3T3 mouse fibroblasts stably expressing […]F508-CFTR are used for optical measurements of membrane potential. The cells are maintained at 37° C. in 5% CO2 and 90% humidity in Dulbecco's modified Eagle's medium supplemented with 2 mM glutamine, 10% fetal bovine serum, 1× NEAA, […]-ME, 1× pen/strep, and 25 mM HEPES in 175 cm^2 culture flasks. For all optical assays, the cells were seeded at 30,000/well in 384-well matrigel-coated plates and cultured for 2 hrs at 37° C. before culturing at 27° C. for 24 hrs for the potentiator assay. For the correction assays, the cells are cultured at 27° C. or 37° C. with and without compounds for 16-24 hoursB.

T1 sequence (P13569 with tags, fused parts or gaps DEL508-508): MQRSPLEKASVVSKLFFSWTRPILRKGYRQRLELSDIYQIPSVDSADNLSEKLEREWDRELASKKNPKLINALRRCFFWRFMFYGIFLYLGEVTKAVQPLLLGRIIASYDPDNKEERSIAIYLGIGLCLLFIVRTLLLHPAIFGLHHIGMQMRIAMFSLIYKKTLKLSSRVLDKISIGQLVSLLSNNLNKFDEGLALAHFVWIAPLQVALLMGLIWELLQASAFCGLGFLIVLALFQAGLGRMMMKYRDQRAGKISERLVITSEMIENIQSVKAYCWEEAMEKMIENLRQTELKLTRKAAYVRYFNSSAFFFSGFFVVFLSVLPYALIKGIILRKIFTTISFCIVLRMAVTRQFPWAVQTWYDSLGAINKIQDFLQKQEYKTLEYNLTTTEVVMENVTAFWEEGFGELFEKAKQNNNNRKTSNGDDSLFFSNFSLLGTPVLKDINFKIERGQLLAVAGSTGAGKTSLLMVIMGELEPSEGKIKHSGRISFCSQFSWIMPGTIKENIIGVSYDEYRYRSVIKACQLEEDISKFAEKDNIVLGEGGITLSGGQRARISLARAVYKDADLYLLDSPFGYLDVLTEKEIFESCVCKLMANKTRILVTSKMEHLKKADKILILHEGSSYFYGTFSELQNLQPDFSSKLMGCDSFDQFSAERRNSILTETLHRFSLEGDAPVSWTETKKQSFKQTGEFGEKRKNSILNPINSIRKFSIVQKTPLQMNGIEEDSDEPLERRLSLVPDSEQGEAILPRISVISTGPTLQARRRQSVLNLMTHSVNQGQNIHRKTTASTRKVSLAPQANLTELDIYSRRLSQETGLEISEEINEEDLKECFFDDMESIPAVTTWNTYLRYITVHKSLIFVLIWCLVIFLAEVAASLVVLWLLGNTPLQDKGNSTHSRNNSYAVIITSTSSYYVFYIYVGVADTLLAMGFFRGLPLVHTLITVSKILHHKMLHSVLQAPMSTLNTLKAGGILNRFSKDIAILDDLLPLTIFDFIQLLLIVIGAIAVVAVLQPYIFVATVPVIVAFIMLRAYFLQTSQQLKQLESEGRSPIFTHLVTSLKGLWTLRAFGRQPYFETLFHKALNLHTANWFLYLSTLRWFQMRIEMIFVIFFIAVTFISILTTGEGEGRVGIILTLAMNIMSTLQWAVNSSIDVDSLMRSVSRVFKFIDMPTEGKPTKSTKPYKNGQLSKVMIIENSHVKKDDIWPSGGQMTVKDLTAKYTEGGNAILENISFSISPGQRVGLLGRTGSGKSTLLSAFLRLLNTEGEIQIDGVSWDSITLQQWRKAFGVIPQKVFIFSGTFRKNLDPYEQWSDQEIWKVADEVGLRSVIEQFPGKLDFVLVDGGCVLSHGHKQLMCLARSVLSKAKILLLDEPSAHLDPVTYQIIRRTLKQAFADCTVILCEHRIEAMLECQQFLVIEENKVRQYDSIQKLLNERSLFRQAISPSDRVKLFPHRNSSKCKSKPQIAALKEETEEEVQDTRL

| Structure (SMILES) | EC50 [µM] | Efficacy |
| --- | --- | --- |
| NC(=O)c1cc(-c2ccc(Cl)c(Cl)c2)nc(N2CCCCC2)n1 [Compound 140] | 1 to 5 | ++ (++ corresponds to Efficacy between 100 and 50) |
| CN(C)C(=O)c1cc(-c2ccccc2)nc(N2CCCCCC2)n1 [Compound 1] | > 5 | ++ (++ corresponds to Efficacy between 100 and 50) |
| COc1ccc(F)cc1-c1cc(C(N)=O)nc(N2CCCCC2)n1 [Compound 137] | 1 to 5 | ++ (++ corresponds to Efficacy between 100 and 50) |
| NC(=O)c1cc(-c2cc(Cl)ccc2Cl)nc(N2CCCCC2)n1 [Compound 202] | 1 to 5 | ++ (++ corresponds to Efficacy between 100 and 50) |
| NC(=O)c1cc(-c2ccoc2)nc(N2CCCCC2)n1 [Compound 25] | > 5 | + (+ corresponds to Efficacy less than 50) |
| CCN(CC)c1nc(C(N)=O)cc(-c2cc(Cl)cc(Cl)c2)n1 [Compound 226] | 1 to 5 | ++ (++ corresponds to Efficacy between 100 and 50) |
| Cc1cccc(-c2cc(C(N)=O)nc(N3CCCCC3)n2)c1C [Compound 11] | 1 to 5 | ++ (++ corresponds to Efficacy between 100 and 50) |
| COc1ccc(-c2cc(C(N)=O)nc(N3CC=CCC3)n2)cc1 [Compound 129] | > 5 | ++ (++ corresponds to Efficacy between 100 and 50) |
| COc1cccc(-c2cc(C(N)=O)nc(N3CCCCC3)n2)c1F [Compound 105] | > 5 | +++ (+++ corresponds to Efficacy greater than 100) |
| COc1ccccc1-c1cc(C(N)=O)nc(N2CCCCC2)n1 [Compound 205] | > 5 | ++ (++ corresponds to Efficacy between 100 and 50) |
| COCCCNc1nc(C(N)=O)cc(-c2cccc(OC)c2)n1 [Compound 88] | > 5 | + (+ corresponds to Efficacy less than 50) |
| COc1ccc(-c2cc(C(N)=O)nc(NCC3CC3)n2)cc1 [Compound 189] | > 5 | + (+ corresponds to Efficacy less than 50) |
| NC(=O)c1cc(-c2ccc(Cl)cc2Cl)nc(N2CCCCC2)n1 [Compound 106] | 1 to 5 | +++ (+++ corresponds to Efficacy greater than 100) |
| CCN(CC)c1nc(C(N)=O)cc(-c2c(OC)cccc2OC)n1 [Compound 108] | > 5 | ++ (++ corresponds to Efficacy between 100 and 50) |
| CCN(CC)c1nc(C(N)=O)cc(-c2cc(F)cc(F)c2)n1 [Compound 151] | 1 to 5 | +++ (+++ corresponds to Efficacy greater than 100) |
| COc1cccc(-c2cc(C(N)=O)nc(N3CCCCCC3)n2)c1 [Compound 161] | 1 to 5 | +++ (+++ corresponds to Efficacy greater than 100) |
| CCN(CC)c1nc(C(N)=O)cc(-c2cccc(Cl)c2Cl)n1 [Compound 210] | < 1 | ++ (++ corresponds to Efficacy between 100 and 50) |
| CCN(CC)c1nc(C(N)=O)cc(-c2ccc(C)s2)n1 [Compound 21] | 1 to 5 | +++ (+++ corresponds to Efficacy greater than 100) |
| CCN(CC)c1nc(C(N)=O)cc(-c2cc(F)ccc2OC)n1 [Compound 133] | < 1 | ++ (++ corresponds to Efficacy between 100 and 50) |
| NC(=O)c1cc(-c2cccc(OC(F)(F)F)c2)nc(N2CCCCC2)n1 [Compound 213] | 1 to 5 | + (+ corresponds to Efficacy less than 50) |
| CCOc1cccc(-c2cc(C(N)=O)nc(N3CCCCC3)n2)c1 [Compound 194] | 1 to 5 | +++ (+++ corresponds to Efficacy greater than 100) |

Further lines, with some results ahead:

| EC50 [µM] | Structure (SMILES) | Efficacy |
| --- | --- | --- |
| 1 to 5 | CN(CCc1ccccc1)c1nc(C(N)=O)cc(-c2ccccc2)n1 [Compound 38] | +++ (+++ corresponds to Efficacy greater than 100) |
| > 5 | COc1cccc(-c2cc(C(N)=O)nc(NCc3ccco3)n2)c1 [Compound 173] | ++ (++ corresponds to Efficacy between 100 and 50) |
| 1 to 5 | CCOC(=O)C1CCCN(c2nc(C(N)=O)cc(-c3ccccc3)n2)C1 (centres unmarked) [Compound 59] | + (+ corresponds to Efficacy less than 50) |
| > 5 | NC(=O)c1cc(-c2ccccc2)nc(N2CCC(O)(c3ccc(Cl)cc3)CC2)n1 [Compound 42] | + (+ corresponds to Efficacy less than 50) |
| 1 to 5 | CCN(CC)c1nc(C(N)=O)cc(-c2ccc(C(=O)OC)cc2)n1 [Compound 223] | +++ (+++ corresponds to Efficacy greater than 100) |
| < 1 | CCN(CC)c1nc(C(N)=O)cc(-c2ccc(OC)cc2)n1 [Compound 109] | +++ (+++ corresponds to Efficacy greater than 100) |
| > 5 | CNC(=O)c1cc(-c2ccccc2)nc(NCC2CC2)n1 [Compound 41] | + (+ corresponds to Efficacy less than 50) |
| < 1 | CCN(CC)c1nc(C(N)=O)cc(-c2cccc(C(=O)OC(C)C)c2)n1 [Compound 85] | ++ (++ corresponds to Efficacy between 100 and 50) |
| 1 to 5 | CCCCN(Cc1ccccc1)c1nc(C(N)=O)cc(-c2ccccc2)n1 [Compound 52] | ++ (++ corresponds to Efficacy between 100 and 50) |
| < 1 | CCOc1ccc(-c2cc(C(N)=O)nc(N(CC)CC)n2)cc1 [Compound 20] | ++ (++ corresponds to Efficacy between 100 and 50) |
| > 5 | NC(=O)c1cc(-c2ccccc2)nc(N2CCC(Cc3ccccc3)CC2)n1 [Compound 37] | ++ (++ corresponds to Efficacy between 100 and 50) |
| > 5 | NC(=O)c1cc(-c2ccccc2)nc(NCc2ccco2)n1 [Compound 216] | ++ (++ corresponds to Efficacy between 100 and 50) |
| < 1 | CCCCN(CCC)c1nc(C(N)=O)cc(-c2ccccc2)n1 [Compound 118] | ++ (++ corresponds to Efficacy between 100 and 50) |
| > 5 | CCNc1nc(C(N)=O)cc(-c2ccccc2)n1 [Compound 215] | ++ (++ corresponds to Efficacy between 100 and 50) |
| < 1 | NC(=O)c1cc(-c2ccccc2)nc(N2CCCCCCC2)n1 [Compound 86] | ++ (++ corresponds to Efficacy between 100 and 50) |
| > 5 | NC(=O)c1cc(-c2ccccc2)nc(N2CCC2)n1 [Compound 183] | ++ (++ corresponds to Efficacy between 100 and 50) |
| 1 to 5 | CCN(CC)c1nc(C(N)=O)cc(-c2cccc(C)c2)n1 [Compound 56] | +++ (+++ corresponds to Efficacy greater than 100) |
| 1 to 5 | CN(CCc1c[nH]c2ccccc12)c1nc(C(N)=O)cc(-c2ccccc2)n1 [Compound 63] | ++ (++ corresponds to Efficacy between 100 and 50) |
| > 5 | COc1cc2c(cc1OC)CN(c1nc(C(N)=O)cc(-c3ccccc3)n1)CC2 [Compound 49] | ++ (++ corresponds to Efficacy between 100 and 50) |
| > 5 | CCCN(CC1CC1)c1nc(C(N)=O)cc(-c2ccccc2OC)n1 [Compound 39] | +++ (+++ corresponds to Efficacy greater than 100) |
| > 5 | CCN(CC)c1nc(C(N)=O)cc(-c2ccc(S(=O)(=O)CC)cc2)n1 [Compound 155] | ++ (++ corresponds to Efficacy between 100 and 50) |
| 1 to 5 | CCCN(CC1CC1)c1nc(C(=O)N(C)C)cc(-c2ccccc2)n1 [Compound 150] | ++ (++ corresponds to Efficacy between 100 and 50) |
